{
  "source": "patent US9486434B2",
  "about": "“Method for delivery and use of isothiocyanates for prophylaxis and/or therapy of bladder cancer” (Health Research Inc., priority 2010, dated 2016)",
  "key": {"UM-UC-3 cells": {"system": "UM-UC-3 cells", "experiment": "Mitochondria-mediated apoptosis in UM-UC-3 cells (Δψm, cytochrome c, TUNEL)", "type": "cell-based, human", "conditions": "co-treatment, 20 microM Z-LEHD-FMK", "experimental": "(§1) FIG. 4. Effect of AITC on mitosis, tubulin expression and apoptosis in human bladder cancer UM-UC-3 cells. Cells were treated with vehicle or AITC for 24 h (each numerical value is mean±SD). A. Flow cytometry analysis for cell cycle arrest. B. Wright-Giemsa staining for counting mitotic figures. Arrows point to cells in mitosis or mitotic catastrophe. C. Immunofluorescent staining of microtubules (green color) and DNA staining with DAPI (blue color). D. Western blotting of tubulins (GAPDH as a loading control). E. Loss of mitochondrial transmembrane potential (Δψm) measured by flow cytometry. F. Western blotting of caspase-9 and caspase-3 (GAPDH as a loading control). G. Apoptotic cells (TUNEL cells) measured by flow cytometry. Cells in F and G were co-treated with or without 20 microM Z-LEHD-FMK (a caspase-9 inhibitor)."}, "[1]": {"system": "α-tubulin, β-tubulin, γ-tubulin, caspase-9, caspase-3, VEGF in UM-UC-3 cells", "experiment": "Western blotting in UM-UC-3 cells (tubulins, caspases, VEGF)", "type": "cell-based, human", "conditions": "co-treatment, 20 microM Z-LEHD-FMK", "experimental": "as §1\n(§2) FIG. 8. Inhibition of bladder cancer development by MSP-1. Female F344 rats were inoculated with AY-27 cells intravesically via a urethra catheter to initiate development of orthotopic bladder cancer. Oral administration of MSP-1 of vehicle (water) once daily was started 1 day after cancer cell inoculation and ended 3 weeks later. The number of rats per group varied from 11-29. A. Initial (□) and final (▪) body weights. B. Tumor weight was calculated by subtracting the average normal bladder weight from tumor-bearing bladder weight. *P<0.05. Each value in A and B is mean±SEM. C. Percentage of bladder where the tumor invaded the muscle tissue. D. The effects of MSP-1 on selected anticancer targets in UM-UC-3 cells (in vitro), AY-27 cells (in vitro) and AY-27 tumors (in vivo). The cells were treated with MSP-1 at the sinigrin concentrations of 13 and 26 microM for 24 h. The bladder tumors were removed from rats treated with MSP-1 at the sinigrin doses of 9 or 90 micromols/kg once daily for 3 weeks, started 1 day after cancer cell inoculation. Cell lysates and tumor homogenates were analyzed by Western blotting, using GAPDH as a loading control.\nWestern blot analysis. […]"}, "[2]": {"system": "cyclooxygenase-2 (Cox-2) in human bladder cancer HT1376 cells", "experiment": "Western blot analysis of Cox-2 in HT1376 cells", "type": "cell-based", "conditions": "24 h, cells overexpressing Cox-2", "experimental": "FIG. 5. The effects of AITC and SF on cyclooxygenase-2 (Cox-2) expression in human bladder cancer cells. Human bladder cancer HT1376 cells that over express Cox-2 were treated with AITC or SF at the indicated concentrations for 24 h and then harvested for Western blot analysis of Cox-2. GAPDH is used as a loading control."}, "[3]": {"conditions": "reference [18]; cited from earlier work"}, "[4]": {"system": "orthotopic AY-27 bladder tumor", "experiment": "Orthotopic rat bladder cancer model", "type": "in vivo, rat (female F344)", "conditions": "sinigrin", "source_text": "FIG. 6. […] Female F344 rats were inoculated intravesically with bladder cancer AY-27 cells to initiate development of orthotopic bladder tumor. Oral administration of AITC at 0, 10, 25, 50 and 300 micromols/kg once daily was started 1 day after AY-27 cell inoculation and ended 3 weeks later. The number of rats per group varied from 6 to 33; some of the data, particularly the control group (n=33) and the group treated with the lowest dose of AITC (n=23), were pooled from several experiments. A. The initial and final body weights. B. The weights of bladder tumors. […] C. Percentage of bladders where the tumor invaded the muscle tissue. D. H/E staining of the normal rat bladder wall (D1), a superficial rat bladder tumor (D2), and a rat bladder tumor that invaded the muscle layer (D3).\nas §2, with “Inhibition of bladder cancer development by MSP-1.” left out, “B. Tumor weight was calculated by subtracting the average normal bladder weight from tumor-bearing bladder weight. *P<0.05.” left out, “The cells were treated with MSP-1 at the sinigrin concentrations of 13 and 26 microM for 24 h.” left out\nFIG. 9. […] Female F344 rats were inoculated with bladder cancer AY-27 cells to initiate development of orthotopic bladder tumor. Oral administration of the powder (sinigrin and glucoraphanin: each at 10 micromols/kg) once daily was started 1 day after AY-27 cell inoculation and ended 3 weeks later. The number of rats per group was 9-10. Each value is mean±SE.\nFIG. 12. […] Bladder cancer was initiated in female F344 rats by orthotopic inoculation of bladder cancer AY-27 cells. Oral administration of NAC-AITC at 10 μmmol/kg body wt once daily was started 1 day after cancer cell inoculation and ended 3 weeks later. There were 23 rats in the control group and 15 rats in the treatment group. (A) The initial (open bars) and final (closed bars) body weight. (B) Bladder tumor weight. Each value is a mean±SE. (C) Percentage of bladders where the tumor invaded the muscle tissue.\nAITC was evaluated in an orthotopic rat bladder cancer model. […] Daily oral administration of AITC was initiated one day after instillation of AY-27 cells and continued for 3 weeks. AITC was evaluated at 4 dose levels: 10, 25, 50 and 300 micromols/kg. […] FIG. 6D depicts representative images of normal rat bladder wall (D1), a superficial AY-27 rat bladder tumor (D2), and a muscle-invasive AY-27 rat bladder tumor (D3).\nA syngeneic orthotopic rat bladder cancer model."}, "[5]": {"system": "human bladder cancer UM-UC-3 cells", "experiment": "MTT cell growth and proliferation assay, UM-UC-3 cells", "type": "cell-based", "conditions": "sinigrin by itself, without myrosinase; result not shown", "experimental": "(§3) FIG. 3. The effect of AITC on cell survival and proliferation. AITC was evaluated at the indicated concentrations in human bladder cancer UM-UC-3 cells, rat bladder cancer AY-27 cells, and normal human bladder epithelial cells (HUC). A. Cell growth inhibition, measured by MTT assay, 72-h AITC treatment. IC50 was calculated from nonlinear regression curve fit. B. Cell cycle arrest (□, subG1; ? , G1; ? , 5; ▪, G2/M), measured by flow cytometry, 24 h AITC treatment. C. Apoptosis induction, measured by an ELISA assay, 24 h AITC treatment. Mean±SE, n=3-6), *P<0.05.\n(§4) FIG. 10. The effect of NAC-AITC on cell survival and proliferation. NAC-AITC was evaluated in both UM-UC-3 cells and AY-27 cells. (A) Chemical structures of AITC and NAC-AITC. (B) Cell growth and proliferation, measured by 3-([…])-2,5-diphenyltetrazolium bromide assay, 72 h treatment with AITC or NAC-AITC at indicated concentrations. IC50 was calculated from the non-linear regression curve fit. (C) Apoptosis, measured by an enzyme-linked immunosorbent assay, 24 h NAC-AITC treatment at 15 µM. (D) Cell cycle (open bars, G1; shaded bars, S; closed bars, G2/M), measured by flow cytometry, 24 h NAC-AITC treatment at 15 μM. *P<, 0.005, compared with control.\n(§5) Assays for cell proliferation, cell cycle arrest and apoptosis. To determine the antiproliferative activity of NAC-AITC, AY-27 cells were grown in 96-well microtiter plates ([…] with 0.15 ml medium per well) for 24 h and then grown for 72 h in fresh medium (0.2 ml/well) containing a series of concentrations of NAC-AITC or solvent. Cell growth was measured at the end of treatment using the 3-([…])-2,5-diphenyltetrazolium bromide assay, from which the half maximal inhibitory concentration (IC50) of NAC-AITC was calculated. AITC was also evaluated for comparison."}, "[6]": {"experiment": "Conversion of sinigrin to AITC in vivo", "conditions": "rat"}, "[7]": {"system": "rat bladder cancer AY-27 cells", "experiment": "MTT cell growth and proliferation assay, AY-27 cells", "type": "cell-based", "conditions": "sinigrin by itself, without myrosinase; result not shown", "experimental": "as §3, §4, §5"}},
  "note": "* marks the point of attachment. Cbz = O=C(OCc1ccccc1)*; CH2F = FC*",
  "data": [
    {"molecule": "Cbz-LEHD-CH2F [reference compound]", "values": [
      {"measurement": "effect on AITC-caused formation of TUNEL-positive cells", "setting": "UM-UC-3 cells", "result": "completely blocked"},
      {"measurement": "effect on AITC-caused activation of the caspases", "setting": "[1]", "result": "completely blocked"}
    ]},
    {"molecule": "C[S+]([O-])CCCCN=C=S", "note": "(centres unmarked) [SF, sulforaphane]", "values": [
      {"measurement": "effect on Cox-2 expression", "setting": "[2]", "result": "strongly down regulates"},
      {"measurement": "delivery to bladder tissue", "setting": "[3]", "result": "selectively delivered to bladder tissue through urinary excretion"}
    ]},
    {"molecule": "C=CCC(=NOS(=O)(=O)O)S[C@@H]1O[C@H](CO)[C@@H](O)[C@H](O)[C@H]1O", "note": "(stereo in doubt) [sinigrin, reference compound]", "values": [
      {"measurement": "efficacy in the orthotopic rat bladder cancer model", "setting": "[4]", "result": "ineffective"},
      {"measurement": "activity in vitro on bladder cancer cell line", "setting": "[5]", "result": "inactive"},
      {"measurement": "sinigrin converted to AITC in vivo", "setting": "[6]", "result": "3-5%"},
      {"measurement": "activity in vitro on bladder cancer cell line", "setting": "[7]", "result": "inactive"}
    ]}
  ]
}
